Results taken from patent publication US10047059B2, “Substituted quinoxalines for inhibiting kinase activity” (NEUPHARMA, INC., priority 2012, dated 2018).

Assays:
[1] = target: T1, BRAF V600E (Homo sapiens, UniProt P15056, V600E); assay: Z'-LYTE kinase inhibition assay against BRAF V600E; type: biochemical; details: % inhibition at 1 μM, Z'-LYTE method
T1 construct: purchased Invitrogen
Description: Inhibitory activities Inhibitory activities of compounds against BRAF, and BRAF V600E were measured by Invitrogen using Z′-LYTE® Method as briefly described in the following. 4× Test compounds are dissolved in 1% DMSO. […] ATP solutions are diluted to a 4×ATP working concentration in Kinase Buffer (50 mM HEPES pH 7.5, 0.01% BRIJ-35, 10 mM MgCl2, 1 mM EGTA). Reaction started by 30-second shaking of mixture consisting of 2.5 μL 4× test compound, […] and 2.5 μL 4×ATP Solution on Bar-coded Corning, low volume NBS, black 384-well plate (Corning Cat. #3676). Then the mixture was incubated for 60-minute at room temperature for the kinase reaction, followed by addition of 5 μL of a 1:1024 dilution of development reagent A and 30-second plate shake. The mixture was then incubated for another 60-minute at room temperature for development reaction. Fluorescence was read by plate reader. IC50 was calculated by plotting the concentration of compound vs the percentage of inhibition in treated wells using GraphPad Prism 5.
Table 2 and 3 show % inhibition at 1 μM of several compounds of the invention against BRAF and BRAF V600E, respectively, using Z′-LYTE® method.
The scale utilized in Table 4 is as follows: +++ less than 100 nM; and ++ greater than 100 nM.

[2] = target: T2, KDR (VEGFR2) (Homo sapiens, UniProt P35968); assay: Z'-LYTE kinase inhibition assay against KDR; type: biochemical; details: % inhibition at 1 μM, Z'-LYTE method
T2 construct: purchased Invitrogen
T2 sequence (P35968 20-1356): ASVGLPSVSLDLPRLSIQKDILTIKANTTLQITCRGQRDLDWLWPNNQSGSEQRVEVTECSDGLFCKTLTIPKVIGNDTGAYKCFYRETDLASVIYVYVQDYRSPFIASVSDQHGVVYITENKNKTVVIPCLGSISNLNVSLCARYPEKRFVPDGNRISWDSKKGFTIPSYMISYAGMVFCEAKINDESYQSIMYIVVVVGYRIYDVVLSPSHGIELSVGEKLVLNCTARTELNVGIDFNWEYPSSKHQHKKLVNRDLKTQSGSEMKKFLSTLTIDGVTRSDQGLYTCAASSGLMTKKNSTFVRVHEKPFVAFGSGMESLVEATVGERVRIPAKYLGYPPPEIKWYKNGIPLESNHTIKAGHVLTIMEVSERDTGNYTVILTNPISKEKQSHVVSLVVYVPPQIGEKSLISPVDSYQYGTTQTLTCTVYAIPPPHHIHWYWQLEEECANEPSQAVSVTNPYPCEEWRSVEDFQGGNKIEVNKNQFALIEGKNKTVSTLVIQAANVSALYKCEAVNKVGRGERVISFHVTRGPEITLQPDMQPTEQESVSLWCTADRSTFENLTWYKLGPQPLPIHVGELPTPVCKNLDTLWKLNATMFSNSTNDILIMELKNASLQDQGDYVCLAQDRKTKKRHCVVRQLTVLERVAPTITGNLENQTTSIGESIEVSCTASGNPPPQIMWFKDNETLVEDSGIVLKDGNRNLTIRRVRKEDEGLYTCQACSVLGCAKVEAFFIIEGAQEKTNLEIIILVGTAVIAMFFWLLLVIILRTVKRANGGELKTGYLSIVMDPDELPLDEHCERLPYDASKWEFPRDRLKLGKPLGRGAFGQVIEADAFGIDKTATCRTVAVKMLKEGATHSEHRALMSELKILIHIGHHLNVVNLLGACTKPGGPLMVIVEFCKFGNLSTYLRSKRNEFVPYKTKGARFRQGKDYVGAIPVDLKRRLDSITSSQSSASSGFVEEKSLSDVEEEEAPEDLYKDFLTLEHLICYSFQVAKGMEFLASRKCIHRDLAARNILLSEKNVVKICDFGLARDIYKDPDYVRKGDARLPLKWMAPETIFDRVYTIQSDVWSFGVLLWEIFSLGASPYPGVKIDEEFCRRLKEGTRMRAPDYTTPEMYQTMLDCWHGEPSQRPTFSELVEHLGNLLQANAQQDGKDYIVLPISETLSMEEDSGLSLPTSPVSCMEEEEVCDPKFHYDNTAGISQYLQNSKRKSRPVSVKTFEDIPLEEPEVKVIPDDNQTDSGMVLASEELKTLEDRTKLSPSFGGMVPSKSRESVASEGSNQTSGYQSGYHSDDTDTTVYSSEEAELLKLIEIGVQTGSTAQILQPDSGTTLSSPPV
Description: Inhibitory activities of compounds against KDR (VEGFR2) were also measured by Invitrogen using Z′-LYTE® Method as described above with the following modification. The 2×KDR (VEGFR2)/Tyr 01 mixture is prepared in 50 mM HEPES pH 7.5, 0.01% BRIJ-35, 10 mM MgCl2, 1 mM EGTA. The final 10 μL Kinase Reaction consists of 0.5-11.7 ng KDR (VEGFR2) and 2 μM Tyr 01 in 50 mM HEPES pH 7.5, 0.01% BRIJ-35, 10 mM MgCl2, 1 mM EGTA. After the 1 hour Kinase Reaction incubation, 5 μL of a 1:256 dilution of Development Reagent B is added.
The scale utilized in Table 6 is as follows: +++ less than 100 nM; and ++ greater than 100 nM

[3] = tested on: A375 cells; assay: Inhibition of cancer cell growth, MTT or MTS assay, A375; type: cell-based; details: Homo sapiens, A-375, 72 h incubation
Description: (§1) Inhibition of cell growth by compounds was measured using MTT or MTS assay. Tumor cell lines were purchased from ATCC (American Type Culture Collection, Manassas, Va.). All cell lines were maintained in RPMI 1640 (Hyclone) supplemented with 10% fetal bovine serum (FBS, Hyclone), glutamine (2 mM, Hyclone), and antibiotics (penicillin 100 U/mL and streptomycin 50 μg/mL) at 37° C. in a humidified atmosphere of 5% CO2 in air. Taxol (as a positive control, Sigma) and compounds were dissolved in DMSO (Sigma), and the final concentration of DMSO in the medium was 1%. Tumor cells were plated in 96-well plates at densities of about 2000 (A375) or 4000 (A549 and Colo205) cells/well of a 96-well plate and allowed to adhere/grow for 24 h. They were then treated with various concentrations of drug and incubated for 72 h. For MTT method, medium was then removed by inverting and tapping the plates. 100 μL of MTT (0.5 mg/ml) was added to each well followed by an incubated at 37° C. for 4 h. MTT was then removed and 200 μL of DMSO was added to each well, and the ODs at 570 nm were measured after a 5 second shaking cycle in a 96-well spectrophotometer. For MTS method, 20 μL MTS (CellTiter 96 Aqueous One Solution, Promega) was added to each well followed by an incubated at 37° C. for 2-4 h, solutions were then directly put in a 96-well spectrophotometer, and the ODs at 490 nm were measured.
(§2) All concentrations of compounds were tested in triplicate and controls were averaged over 4 wells. IC50 was calculated by plotting the concentration of compound vs the percentage of inhibition in treated wells using GraphPad Prism 5. […] The scale utilized in Tables 7-9 is as follows: +++ less than 1000 nM; ++ between 1000 nM and 5000 nM; and + greater than 5000 nM. The scale utilized in […]

[4] = tested on: A549 cells; assay: Inhibition of cancer cell growth, MTT or MTS assay, A549; type: cell-based; details: Homo sapiens, 72 h incubation
Description: as §1, §2

T1 sequence (P15056 whole entry V600E): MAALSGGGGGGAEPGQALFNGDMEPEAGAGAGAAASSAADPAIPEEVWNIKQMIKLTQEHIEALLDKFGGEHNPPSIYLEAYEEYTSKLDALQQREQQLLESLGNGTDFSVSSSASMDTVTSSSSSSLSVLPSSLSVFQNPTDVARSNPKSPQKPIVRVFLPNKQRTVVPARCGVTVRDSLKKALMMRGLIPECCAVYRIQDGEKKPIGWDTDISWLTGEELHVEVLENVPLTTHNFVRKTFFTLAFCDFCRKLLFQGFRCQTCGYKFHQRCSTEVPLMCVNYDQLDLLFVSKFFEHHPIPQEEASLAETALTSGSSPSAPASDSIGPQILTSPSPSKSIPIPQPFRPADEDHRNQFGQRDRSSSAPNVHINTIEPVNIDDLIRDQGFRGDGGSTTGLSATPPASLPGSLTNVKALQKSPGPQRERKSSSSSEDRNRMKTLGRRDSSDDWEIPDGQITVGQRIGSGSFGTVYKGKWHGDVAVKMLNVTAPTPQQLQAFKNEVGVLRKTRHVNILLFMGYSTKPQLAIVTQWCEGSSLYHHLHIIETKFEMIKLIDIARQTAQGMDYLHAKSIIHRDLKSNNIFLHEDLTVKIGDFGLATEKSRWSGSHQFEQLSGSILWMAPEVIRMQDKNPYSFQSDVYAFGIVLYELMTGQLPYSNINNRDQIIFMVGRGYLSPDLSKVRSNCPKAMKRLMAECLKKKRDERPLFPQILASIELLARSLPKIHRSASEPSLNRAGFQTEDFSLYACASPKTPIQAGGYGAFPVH

SMILES | inhibition at 1 µM [1] [%] | inhibition at 1 µM [2] [%] | IC50 [3] [µM] | IC50 [4] [µM]
O=C(Nc1ccc(C(=O)c2ccc3ncc(N4CCOCC4)nc3c2)cc1)Nc1ccc(F)c(C(F)(F)F)c1 [Compound C06, 1-(4-fluoro-3-(trifluoromethyl)phenyl)-3-(4-(3-morpholinoquinoxaline-6-carbonyl)phenyl)urea] | < 70 | 70 to 89 | 1 to 5 | 1 to 5
O=C(Nc1ccc(C(=O)c2ccc3ncc(N4CCOCC4)nc3c2)cc1)Nc1ccc(Cl)c(C(F)(F)F)c1 [Compound C07, 1-(4-chloro-3-(trifluoromethyl)phenyl)-3-(4-(3-morpholinoquinoxaline-6-carbonyl)phenyl)urea] | < 70 | 70 to 89 | 1 to 5 | 1 to 5
O=C(Nc1ccc(C(=O)c2ccc3ncc(N4CCOCC4)nc3c2)cc1)Nc1ccc(C(F)(F)F)cc1 [Compound C08, 1-(4-(3-morpholinoquinoxaline-6-carbonyl)phenyl)-3-(4-(trifluoromethyl)phenyl)urea] | < 70 | < 70 | < 1 | 1 to 5
N#Cc1ccc(NC(=O)Nc2ccc(C(=O)c3ccc4ncc(N5CCOCC5)nc4c3)cc2)cc1C(F)(F)F [Compound C15, 1-(4-cyano-3-(trifluoromethyl)phenyl)-3-(4-(3-morpholinoquinoxaline-6-carbonyl)phenyl)urea] | < 70 | 70 to 89 | 1 to 5 | 1 to 5
N#Cc1ccc(NC(=O)Nc2ccc(C(=O)c3ccc4ncc(N5CCOCC5)nc4c3)c(F)c2)cc1C(F)(F)F [Compound C18, 1-(4-cyano-3-(trifluoromethyl)phenyl)-3-(3-fluoro-4-(3-morpholinoquinoxaline-6-carbonyl)phenyl)urea] | 70 to 89 | 70 to 89 | 1 to 5 | 1 to 5
O=C(Nc1cccc(F)c1)Nc1ccc(C(=O)c2ccc3ncc(N4CCOCC4)nc3c2)c(F)c1 [Compound C22, 1-(3-fluoro-4-(3-morpholinoquinoxaline-6-carbonyl)phenyl)-3-(3-fluorophenyl)urea] | < 70 | < 70 | – | > 5
O=C(Nc1ccc(F)cc1)Nc1ccc(C(=O)c2ccc3ncc(N4CCOCC4)nc3c2)c(F)c1 [Compound C23, 1-(3-fluoro-4-(3-morpholinoquinoxaline-6-carbonyl)phenyl)-3-(4-fluorophenyl)urea] | 70 to 89 | < 70 | – | > 5
O=C(Nc1cccc(C(F)(F)F)c1)Nc1ccc(C(=O)c2ccc3ncc(N4CCOCC4)nc3c2)c(F)c1 [Compound C24, 1-(3-fluoro-4-(3-morpholinoquinoxaline-6-carbonyl)phenyl)-3-(3-(trifluoromethyl)phenyl)urea] | < 70 | 70 to 89 | 1 to 5 | 1 to 5
O=C(Nc1ccc(C(=O)c2ccc3ncc(N4CCOCC4)nc3c2)c(F)c1)Nc1ccc(Cl)c(C(F)(F)F)c1 [Compound C25] | < 70 | < 70 | – | 1 to 5
N#Cc1cnc2ccc(C(=O)c3ccc(NC(=O)Nc4ccc(Cl)c(C(F)(F)F)c4)cc3F)cc2n1 [Compound C30, 1-(4-chloro-3-(trifluoromethyl)phenyl)-3-(4-(3-cyanoquinoxaline-6-carbonyl)-3-fluorophenyl)urea] | < 70 | < 70 | – | > 5
Cn1cc(NC(=O)Nc2ccc(C(=O)c3ccc4ncc(N5CCNCC5)nc4c3)c(F)c2)cn1 [Compound C32, 1-(3-fluoro-4-(3-(piperazin-1-yl)quinoxaline-6-carbonyl)phenyl)-3-(1-methyl-1H-pyrazol-4-yl)urea] | 70 to 89 | < 70 | – | –
Cc1cc(NC(=O)Nc2ccc(C(=O)c3ccc4ncc(N5CCNCC5)nc4c3)c(F)c2)no1 [Compound C33, 1-(3-fluoro-4-(3-(piperazin-1-yl)quinoxaline-6-carbonyl)phenyl)-3-(5-methylisoxazol-3-yl)urea] | > 89 | < 70 | 1 to 5 | –
O=C(Nc1ccc(C(=O)c2ccc3ncc(N4CCOCC4)nc3c2)c(F)c1)c1cccc(F)c1 [Compound C34, 3-fluoro-N-(3-fluoro-4-(3-morpholinoquinoxaline-6-carbonyl)phenyl)benzamide] | – | – | > 5 | –
O=C(Nc1ccc(C(=O)c2ccc3ncc(N4CCOCC4)nc3c2)c(F)c1)c1ccc(Cl)cc1 [Compound C35, 4-chloro-N-(3-fluoro-4-(3-morpholinoquinoxaline-6-carbonyl)phenyl)benzamide] | – | – | > 5 | –
O=C(Nc1ccc(C(=O)c2ccc3ncc(N4CCOCC4)nc3c2)c(F)c1)c1ccc(Cl)c(C(F)(F)F)c1 [Compound C36, 4-chloro-N-(3-fluoro-4-(3-morpholinoquinoxaline-6-carbonyl)phenyl)-3-(trifluoromethyl)benzamide] | – | – | > 5 | –
O=C(Nc1ccc(C(=O)c2ccc3ncc(N4CCOCC4)nc3c2)c(F)c1)c1cccc(Cl)c1 [Compound C37, 3-chloro-N-(3-fluoro-4-(3-morpholinoquinoxaline-6-carbonyl)phenyl)benzamide] | – | – | > 5 | –
O=C(Nc1ccc(C(=O)c2ccc3ncc(N4CCOCC4)nc3c2)c(F)c1)c1cccc(C(F)(F)F)c1 [Compound C38, N-(3-fluoro-4-(3-morpholinoquinoxaline-6-carbonyl)phenyl)-3-(trifluoromethyl)benzamide] | – | – | 1 to 5 | –
O=C(Nc1ccc(C(=O)c2ccc3ncc(N4CCNCC4)nc3c2)c(F)c1)c1cccc(F)c1 [Compound C39, 3-fluoro-N-(3-fluoro-4-(3-(piperazin-1-yl)quinoxaline-6-carbonyl)phenyl)benzamide] | – | – | 1 to 5 | –
O=C(Nc1ccc(C(=O)c2ccc3ncc(N4CCNCC4)nc3c2)c(F)c1)c1ccc(Cl)cc1 [Compound C40, 4-chloro-N-(3-fluoro-4-(3-(piperazin-1-yl)quinoxaline-6-carbonyl)phenyl)benzamide] | – | – | 1 to 5 | –
O=C(Nc1ccc(C(=O)c2ccc3ncc(N4CCNCC4)nc3c2)c(F)c1)c1cccc(Cl)c1 [Compound C41, 3-chloro-N-(3-fluoro-4-(3-(piperazin-1-yl)quinoxaline-6-carbonyl)phenyl)benzamide] | – | – | < 1 | –
O=C(Nc1ccc(C(=O)c2ccc3ncc(N4CCNCC4)nc3c2)c(F)c1)c1cccc(C(F)(F)F)c1 [Compound C42, N-(3-fluoro-4-(3-(piperazin-1-yl)quinoxaline-6-carbonyl)phenyl)-3-(trifluoromethyl)benzamide] | – | – | 1 to 5 | –
O=C(Nc1ccc(C(=O)c2ccc3ncc(N4CCNCC4)nc3c2)c(F)c1)c1ccc(Cl)c(C(F)(F)F)c1 [Compound C43, 4-chloro-N-(3-fluoro-4-(3-(piperazin-1-yl)quinoxaline-6-carbonyl)phenyl)-3-(trifluoromethyl)benzamide] | – | – | < 1 | –
